Laboratory results: ChEMBL document CHEMBL1129837, “Quantitative structure-activity relationships of benzoyliminothiadiazoline derivatives as angiotensin II receptor antagonists” (Bioorg Med Chem Lett, 1997)

The compounds below were run against T1, Type-1 angiotensin II receptor B (Rattus norvegicus, UniProt P29089) (assay: Inhibition of binding of [125I]All at the angiotensin II type 1 receptor (AT1 receptor) in rat liver membranes).
T1 sequence (P29089 whole entry): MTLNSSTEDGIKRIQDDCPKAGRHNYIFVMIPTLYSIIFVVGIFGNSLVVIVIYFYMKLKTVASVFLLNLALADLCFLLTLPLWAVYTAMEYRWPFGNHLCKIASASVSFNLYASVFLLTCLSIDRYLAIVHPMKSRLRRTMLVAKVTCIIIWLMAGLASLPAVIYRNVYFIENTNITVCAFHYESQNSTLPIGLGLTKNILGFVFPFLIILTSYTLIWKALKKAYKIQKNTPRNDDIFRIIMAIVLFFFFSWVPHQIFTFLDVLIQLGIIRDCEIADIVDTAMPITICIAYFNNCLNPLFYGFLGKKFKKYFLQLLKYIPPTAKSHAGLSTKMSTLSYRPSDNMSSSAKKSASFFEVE
Assay type: cell membranes, Membrane

| SMILES | Ki |
| --- | --- |
| CCc1nn(Cc2ccc(-c3ccccc3-c3nn[nH]n3)cc2)/c(=N/C(=O)c2ccc(C(F)(F)F)cc2)s1 | 557 nM |
| CCc1nn(Cc2ccc(-c3ccccc3-c3nn[nH]n3)cc2)/c(=N/C(=O)c2ccc(C)cc2)s1 | 48 nM |
| CCc1nn(Cc2ccc(-c3ccccc3-c3nn[nH]n3)cc2)/c(=N/C(=O)c2cccc(C)c2)s1 | 79.4 nM |
| Cc1nn(Cc2ccc(-c3ccccc3-c3nn[nH]n3)cc2)/c(=N/C(=O)c2ccccc2Cl)s1 | 18 nM |
| CCc1nn(Cc2ccc(-c3ccccc3-c3nn[nH]n3)cc2)/c(=N/C(=O)c2ccc([N+](=O)[O-])cc2)s1 | 141 nM |
| CCc1nn(Cc2ccc(-c3ccccc3-c3nn[nH]n3)cc2)/c(=N/C(=O)c2ccccc2C)s1 | 35.9 nM |
| CCc1nn(Cc2ccc(-c3ccccc3-c3nn[nH]n3)cc2)/c(=N/C(=O)c2ccccc2I)s1 | 3.86 nM |
| CCc1nn(Cc2ccc(-c3ccccc3-c3nn[nH]n3)cc2)/c(=N/C(=O)c2ccccc2[N+](=O)[O-])s1 | 3.23 nM |
| O=C(/N=c1\sc(C2CC2)nn1Cc1ccc(-c2ccccc2-c2nn[nH]n2)cc1)c1ccccc1Cl | 15.1 nM |
| CCc1nn(Cc2ccc(-c3ccccc3-c3nn[nH]n3)cc2)/c(=N/C(=O)c2ccccc2F)s1 | 7.24 nM |
| CCc1nn(Cc2ccc(-c3ccccc3-c3nn[nH]n3)cc2)/c(=N/C(=O)c2cccc(F)c2)s1 | 134 nM |
| Cc1nn(Cc2ccc(-c3ccccc3-c3nn[nH]n3)cc2)/c(=N/C(=O)c2ccccc2C(=O)O)s1 | 2.69 nM |
| CCCCc1nn(Cc2ccc(-c3ccccc3-c3nn[nH]n3)cc2)/c(=N/C(=O)c2ccccc2Cl)s1 | 200 nM |
| CCCc1nn(Cc2ccc(-c3ccccc3-c3nn[nH]n3)cc2)/c(=N/C(=O)c2ccccc2Cl)s1 | 22 nM |
| CCc1nn(Cc2ccc(-c3ccccc3-c3nn[nH]n3)cc2)/c(=N/C(=O)c2ccc(OC)cc2)s1 | 28 nM |
| CCc1nn(Cc2ccc(-c3ccccc3-c3nn[nH]n3)cc2)/c(=N/C(=O)c2ccccc2C(F)(F)F)s1 | 6 nM |
| CCc1nn(Cc2ccc(-c3ccccc3-c3nn[nH]n3)cc2)/c(=N/C(=O)c2ccccc2)s1 | 36 nM |
| CCc1nn(Cc2ccc(-c3ccccc3-c3nn[nH]n3)cc2)/c(=N/C(=O)c2ccccc2Cl)s1 | 3.39 nM |
| CCc1nn(Cc2ccc(-c3ccccc3-c3nn[nH]n3)cc2)/c(=N/C(=O)c2cccc(Cl)c2)s1 | 190 nM |
| CCc1nn(Cc2ccc(-c3ccccc3-c3nn[nH]n3)cc2)/c(=N/C(=O)c2ccc(Br)cc2)s1 | 320 nM |
| CCc1nn(Cc2ccc(-c3ccccc3-c3nn[nH]n3)cc2)/c(=N/C(=O)c2ccccc2Br)s1 | 3.47 nM |
| CCc1nn(Cc2ccc(-c3ccccc3-c3nn[nH]n3)cc2)/c(=N/C(=O)c2ccc(F)cc2)s1 | 102 nM |
| CCc1nn(Cc2ccc(-c3ccccc3-c3nn[nH]n3)cc2)/c(=N/C(=O)c2ccccc2OC)s1 | 2.5 nM |
| CCc1nn(Cc2ccc(-c3ccccc3-c3nn[nH]n3)cc2)/c(=N/C(=O)c2ccc(Cl)cc2)s1 | 330 nM |
| CCCc1nn(Cc2ccc(-c3ccccc3-c3nn[nH]n3)cc2)/c(=N/C(=O)c2ccccc2C(=O)O)s1 | 2 nM |
| CCc1nn(Cc2ccc(-c3ccccc3-c3nn[nH]n3)cc2)/c(=N/C(=O)c2cccc(C(F)(F)F)c2)s1 | 447 nM |
| CCc1nn(Cc2ccc(-c3ccccc3-c3nn[nH]n3)cc2)/c(=N/C(=O)c2cccc(Br)c2)s1 | 300 nM |
| CCc1nn(Cc2ccc(-c3ccccc3-c3nn[nH]n3)cc2)/c(=N/C(=O)c2ccccc2C(=O)O)s1 | 0.619 nM |
| CCc1nn(Cc2ccc(-c3ccccc3-c3nn[nH]n3)cc2)/c(=N/C(=O)c2cccc([N+](=O)[O-])c2)s1 | 141 nM |
| CCc1nn(Cc2ccc(-c3ccccc3-c3nn[nH]n3)cc2)/c(=N/C(=O)c2cccc(OC)c2)s1 | 49 nM |
